Here are results for five compounds from patent US20260144788A1, “COMPOUND FOR SHP2 PROTEIN DEGRADATION AND MEDICAL USES THEREOF” (UBIX THERAPEUTICS, INC., priority 2022, published 2026).

The experiment addresses T1, SHP2 protein (Homo sapiens, UniProt Q06124).
T1 sequence (Q06124 1-593): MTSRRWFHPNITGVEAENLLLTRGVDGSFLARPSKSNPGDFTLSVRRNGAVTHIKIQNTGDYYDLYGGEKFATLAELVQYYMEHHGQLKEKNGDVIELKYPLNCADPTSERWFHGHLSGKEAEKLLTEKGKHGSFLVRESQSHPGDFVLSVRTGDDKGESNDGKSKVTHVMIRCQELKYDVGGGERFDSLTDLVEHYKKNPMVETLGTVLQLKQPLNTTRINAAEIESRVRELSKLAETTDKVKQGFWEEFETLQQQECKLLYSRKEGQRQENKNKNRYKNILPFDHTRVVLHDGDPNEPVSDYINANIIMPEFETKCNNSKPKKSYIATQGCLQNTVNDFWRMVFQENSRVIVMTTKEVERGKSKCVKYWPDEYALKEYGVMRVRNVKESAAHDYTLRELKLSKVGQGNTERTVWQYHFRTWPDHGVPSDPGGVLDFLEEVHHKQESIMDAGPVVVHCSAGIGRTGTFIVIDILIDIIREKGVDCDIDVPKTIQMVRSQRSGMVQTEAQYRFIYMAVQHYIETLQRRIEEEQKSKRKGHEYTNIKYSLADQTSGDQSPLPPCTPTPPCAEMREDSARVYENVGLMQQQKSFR
The experiment in a line: Measurement of SHP2 protein degradation in NCI-H358 cells (western blotting). The format is cell-based. Further details: endogenous in cells; host or cells: NCI-H358. The following applies: harvested after 24 hours. Summed up: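 H358 cells in RPMI1640/25 mM HEPES/10% FBS, cultured 24 h, then exposed to compound at final 0.001, 0.01 and 0.1 μM for 24 h against a DMSO control. Lysates were normalised for protein by BCA and probed by western blot for SHP2, with GAPDH as loading control.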

Each structure is given as a SMILES string.

Turning to `Cc1cc(C(C(=O)N2C[C@H](O)C[C@H]2C(=O)NCc2ccc(-c3scnc3C)cc2OC2CCN(C(=O)C3CCN(c4nccc(Sc5cnc(N6CCC7(CC6)CO[C@@H](C)[C@H]7N)cn5)c4Cl)CC3)CC2)C(C)C)on1` (stereo partly drawn) [Example 95, (2S,4R)—N-(2-((1-(1-(4-((5-((3S,4S)-4-amino-3-methyl-2-oxa-8-azaspiro[4.5]decan-8-yl)pyrazin-2-yl)thio)-3-chloropyridin-2-yl)piperidine-4-carbonyl)piperidin-4-yl)oxy)-4-(4-methylthiazol-5-yl)benzyl)-4-hydroxy-1-(3-methyl-2-(3-methylisoxazol-5-yl)butanoyl)pyrrolidine-2-carboxamide], the SHP2% degradation (0.01 μM) is 99.2% and the SHP2% degradation (0.1 μM) is 99.7%.

For the compound `CC(=O)N[C@H](C(=O)N1C[C@H](O)C[C@H]1C(=O)NCc1ccc(-c2scnc2C)cc1O[C@H]1CC[C@H](C(=O)N2CCC(n3cc(F)c4c(Sc5cnc(N6CCC(C)(CN)CC6)cn5)cccc43)CC2)CC1)C(C)(C)C` [Example 37, (2S,4R)-1-((S)-2-acetamido-3,3-dimethylbutanoyl)-N-(2-(((1r,4S)-4-(4-(4-((5-(4-(aminomethyl)-4-methylpiperidin-1-yl)pyrazin-2-yl)thio)-3-fluoro-1H-indol-1-yl)piperidine-1-carbonyl)cyclohexyl)oxy)-4-(4-methylthiazol-5-yl)benzyl)-4-hydroxypyrrolidine-2-carboxamide], the SHP2% degradation is, setting by setting: (0.01 μM) 75.8%; (0.1 μM) 99. %.

As for `Cc1cn([C@H](C(=O)N2C[C@H](O)C[C@H]2C(=O)NCc2ccc(-c3scnc3C)cc2OC2CCN(C(=O)C3CCN(c4nccc(Sc5cnc(N6CCC(C)(CN)CC6)c(CO)n5)c4Cl)CC3)CC2)C(C)C)nn1` [Example 108, (2S,4R)—N-(2-((1-(1-(4-((5-(4-(aminomethyl)-4-methylpiperidin-1-yl)-6-(hydroxymethyl)pyrazin-2-yl)thio)-3-chloropyridin-2-yl)piperidine-4-carbonyl)piperidin-4-yl)oxy)-4-(4-methylthiazol-5-yl)benzyl)-4-hydroxy-1-((S)-3-methyl-2-(4-methyl-1H-1,2,3-triazol-1-yl)butanoyl)pyrrolidine-2-carboxamide], the SHP2% degradation by setting is: (0.01 μM) 99.1%; (0.1 μM) 99.6%.

For `CC(=O)N[C@H](C(=O)N1C[C@H](O)C[C@H]1C(=O)NCc1ccc(-c2scnc2C)cc1O[C@H]1CC[C@H](C(=O)N2CC(N3CCOc4c(Sc5cnc(N6CCC(C)(CN)CC6)cn5)cccc43)C2)CC1)C(C)(C)C` [Example 34, (2S,4R)-1-((S)-2-acetamido-3,3-dimethylbutanoyl)-N-(2-(((1R,4S)-4-(3-(8-((5-(4-(aminomethyl)-4-methylpiperidin-1-yl)pyrazin-2-yl)thio)-2,3-dihydro-4H-benzo[b][1,4]oxazin-4-yl)azetidine-1-carbonyl)cyclohexyl)oxy)-4-(4-methylthiazol-5-yl)benzyl)-4-hydroxypyrrolidine-2-carboxamide], the SHP2% degradation is given as −36.9% (0.01 μM) and 73.0% (0.1 μM).

With `CC(=O)N[C@H](C(=O)N1C[C@H](O)C[C@H]1C(=O)N[C@@H](C)c1ccc(-c2scnc2C)cc1O[C@H]1CC[C@H](C(=O)N2CC(Nc3nccc(Sc4cnc(N5CCC(C)(CN)CC5)cn4)c3Cl)C2)CC1)C(C)(C)C` [Example 49, (2S,4R)-1-((S)-2-acetamido-3,3-dimethylbutanoyl)-N—((S)-1-(2-(((1R,4S)-4-(3-((4-((5-(4-(aminomethyl)-4-methylpiperidin-1-yl)pyrazin-2-yl)thio)-3-chloropyridin-2-yl)amino)azetidine-1-carbonyl)cyclohexyl)oxy)-4-(4-methylthiazol-5-yl)phenyl)ethyl)-4-hydroxypyrrolidine-2-carboxamide], the SHP2% degradation was determined as 87.1% (0.01 μM) and 99.4% (0.1 μM).
